Square brackets hold non-standard residues; d marks the D form. Ends that are not written are not given here. Orn = NCCC[C@H](N)C(=O)O

The results in this text go back to US8598120B2 (Amylin Pharmaceuticals, LLC, priority 2004, dated 2013).

This assay in a line: Food intake assay in overnight fasted mice. It is filed as in vivo. The following applies: 25 nmol/kg intraperitoneal. The procedure:
Female NIH/Swiss mice (8-14 weeks old) were group housed with a 12:12 hour light:dark cycle. Water and a standard pelleted mouse chow diet are available ad libitum, except as noted. Animals are fasted starting at approximately 1500 hrs, 1 day prior to experiment.
The effects of treatment on food intake are expressed as % change relative to control.

As to “KCNTATCVLGRLFDFLHRLQTYPRTNTGSNTY [Compound 112]”, the “cumulative food intake compared to vehicle, 30 min” value is −62%; the “cumulative food intake compared to vehicle, 60 min” value is given as −65%; the “cumulative food intake compared to vehicle, 120 min” value was −50%.

With “KCNTATCVLGRLNEYLHRLQTYPRTNTGSNTY [Compound 101]”, the “cumulative food intake compared to vehicle, 30 min” value is on record as −52%; the “cumulative food intake compared to vehicle, 60 min” value was −48%; the “cumulative food intake compared to vehicle, 120 min” value is listed as −35%.

Consider “KCNTATCVLGRLSQELHKLQTYPRTNTGSNTY [Compound 24]”, for which the “cumulative food intake compared to vehicle, 30 min” value is reported as −40%; the “cumulative food intake compared to vehicle, 60 min” value is −34%; the “cumulative food intake compared to vehicle, 120 min” value is listed as −35%; the “cumulative food intake compared to vehicle, 180 min” value is recorded as −35%.

Regarding “KCNTATCVLGRLSQELHRLQNFVPRTNTGSNTY [Compound 90]”, the “cumulative food intake compared to vehicle, 30 min” value was −55%; the “cumulative food intake compared to vehicle, 60 min” value was −41%; the “cumulative food intake compared to vehicle, 120 min” value is −24%; the “cumulative food intake compared to vehicle, 180 min” value is −15%.

“KCNTATCVLGRLSQELHRLQTLLQTYPRTNTGSNTY [Compound 48]”: the “cumulative food intake compared to vehicle, 30 min” value is given as −54%; the “cumulative food intake compared to vehicle, 60 min” value was −51%; the “cumulative food intake compared to vehicle, 120 min” value is −36%.

With “KCNTATCVLGRLSQELHRLQTLPPTNVGSNTY [Compound 13]”, the “cumulative food intake compared to vehicle, 30 min” value is on record as −40%; the “cumulative food intake compared to vehicle, 60 min” value is on record as −33%; the “cumulative food intake compared to vehicle, 120 min” value was −25%; the “cumulative food intake compared to vehicle, 180 min” value is given as −24%.

“KCNTATCVLGRLSQELHRLQTLPRTNTGSNTY [Compound 11]”: the “cumulative food intake compared to vehicle, 30 min” value is −52%; the “cumulative food intake compared to vehicle, 60 min” value is listed as −47%; the “cumulative food intake compared to vehicle, 120 min” value is reported as −38%; the “cumulative food intake compared to vehicle, 180 min” value is given as −35%.

As to “KCNTATCVLGRLSQELHRLQTMPRTNTGSNTY [Compound 99]”, the “cumulative food intake compared to vehicle, 30 min” value was −57%; the “cumulative food intake compared to vehicle, 60 min” value is −55%; the “cumulative food intake compared to vehicle, 120 min” value is −50%.

On to “KCNTATCVLGRLSQELHRLQTVPRTNTGSNTY [Compound 100]”, for which the “cumulative food intake compared to vehicle, 30 min” value is −60%; the “cumulative food intake compared to vehicle, 60 min” value was −52%; the “cumulative food intake compared to vehicle, 120 min” value is −41%.

Turning to “KCNTATCVLGRLSQELHRLQTYPPTNTGSNTY [Compound 12]”, the “cumulative food intake compared to vehicle, 30 min” value is −43%; the “cumulative food intake compared to vehicle, 60 min” value is −39%; the “cumulative food intake compared to vehicle, 120 min” value is recorded as −37%; the “cumulative food intake compared to vehicle, 180 min” value is recorded as −32%.

For “KCNTATCVLGRLSQELHRLQTYPRTNTGSETF [Compound 91]”, the “cumulative food intake compared to vehicle, 30 min” value is given as −59%; the “cumulative food intake compared to vehicle, 60 min” value is −47%; the “cumulative food intake compared to vehicle, 120 min” value is reported as −26%; the “cumulative food intake compared to vehicle, 180 min” value is recorded as −24%.

“KCNTATCVLGRLSQELHRLQTYPRTNTGSGTP [Compound 25]”: the “cumulative food intake compared to vehicle, 30 min” value is recorded as −29%; the “cumulative food intake compared to vehicle, 60 min” value was −34%; the “cumulative food intake compared to vehicle, 120 min” value is −45%.

For the substance “KCNTATCVLGRLSQELHRLQTYPRTNTGSKAF [Compound 93]”, the “cumulative food intake compared to vehicle, 30 min” value is reported as −43%; the “cumulative food intake compared to vehicle, 60 min” value is recorded as −30%; the “cumulative food intake compared to vehicle, 120 min” value is on record as −27%; the “cumulative food intake compared to vehicle, 180 min” value is on record as −29%.

In the case of “KCNTATCVLGRLSQELHRLQTYPTNVGSEAF [Compound 85]”, the “cumulative food intake compared to vehicle, 30 min” value is 3%; the “cumulative food intake compared to vehicle, 60 min” value is −16%; the “cumulative food intake compared to vehicle, 120 min” value is listed as −16%.

“KCNTATCVLGRLSQELHRYPRTNTGSNTY [Compound 39]”: the “cumulative food intake compared to vehicle, 30 min” value was found to be 7%; the “cumulative food intake compared to vehicle, 60 min” value is recorded as −14%; the “cumulative food intake compared to vehicle, 120 min” value is recorded as −23%.

As for “KCNTATCVLGRLSQELH[Orn]LQTYPRTNTGSNTY (cysteine pairing not given here) [Compound 77]”, the “cumulative food intake compared to vehicle, 30 min” value is on record as −46%; the “cumulative food intake compared to vehicle, 60 min” value is given as −43%; the “cumulative food intake compared to vehicle, 120 min” value was −44%.

Regarding “KCNTATCVLGRLSRSLHRLQTYPRTNTGSNTY [Compound 86]”, the “cumulative food intake compared to vehicle, 30 min” value is recorded as −44%; the “cumulative food intake compared to vehicle, 60 min” value is recorded as −26%; the “cumulative food intake compared to vehicle, 120 min” value was −16%.

With “KCNTATCVLGRLTDYLHRLQTYPRTNTGSNTY [Compound 105]”, the “cumulative food intake compared to vehicle, 30 min” value was −83%; the “cumulative food intake compared to vehicle, 60 min” value was −82%; the “cumulative food intake compared to vehicle, 120 min” value is given as −52%.

With “KCNTATCVLGRLTEFLHRLQTYPRTNTGSNTY [Compound 103]”, the “cumulative food intake compared to vehicle, 30 min” value is −50%; the “cumulative food intake compared to vehicle, 60 min” value is −44%; the “cumulative food intake compared to vehicle, 120 min” value is −30%.

With “KCNTATCVLG[Orn]LSQELH[Orn]LQTYPRTNTGSNTY (cysteine pairing not given here) [Compound 61]”, the “cumulative food intake compared to vehicle, 30 min” value is reported as −23%; the “cumulative food intake compared to vehicle, 60 min” value was −27%; the “cumulative food intake compared to vehicle, 120 min” value is given as −32%.

In the case of “KCNTATCVTHRLSQELHRLQTYPRTNTGSNTY [Compound 87]”, the “cumulative food intake compared to vehicle, 30 min” value is −43%; the “cumulative food intake compared to vehicle, 60 min” value is given as −32%; the “cumulative food intake compared to vehicle, 120 min” value is given as −21%.

In the case of “KCNTAVCVLGRLSQELHRLQTYPRTNTGSNTY [Compound 37]”, the “cumulative food intake compared to vehicle, 30 min” value is −3%; the “cumulative food intake compared to vehicle, 60 min” value is recorded as −2%; the “cumulative food intake compared to vehicle, 120 min” value is recorded as −16%.

Regarding “KCNTSTCATQRLANELVRLQTYPRTNVGSEAF [Compound 84]”, the “cumulative food intake compared to vehicle, 30 min” value is given as −53%; the “cumulative food intake compared to vehicle, 60 min” value is given as −40%; the “cumulative food intake compared to vehicle, 120 min” value is given as −20%.

For the substance “KCNTSTCATQRLANELVRLQTYPRTNVGSNTY [Compound 53]”, the “cumulative food intake compared to vehicle, 30 min” value is given as −92%; the “cumulative food intake compared to vehicle, 60 min” value is reported as −89%; the “cumulative food intake compared to vehicle, 120 min” value is given as −36%.

Take “KCNTSTCVLGRLSQELHRLQTYPRTNTGSNTY [Compound 50]”: the “cumulative food intake compared to vehicle, 30 min” value is −70%; the “cumulative food intake compared to vehicle, 60 min” value is given as −62%; the “cumulative food intake compared to vehicle, 120 min” value was −48%.

With “KDNTATKVLGRLSQELHRLQTYPRTNTGSNTY [Compound 69]”, the “cumulative food intake compared to vehicle, 30 min” value is listed as −29%; the “cumulative food intake compared to vehicle, 60 min” value is recorded as −31%; the “cumulative food intake compared to vehicle, 120 min” value is on record as −45%.

Take “SCNTATCVLGRLADFLHRLQTYPRTNTGSNTY [Compound 97]”: the “cumulative food intake compared to vehicle, 30 min” value is recorded as −78%; the “cumulative food intake compared to vehicle, 60 min” value is listed as −76%; the “cumulative food intake compared to vehicle, 120 min” value is given as −60%; the “cumulative food intake compared to vehicle, 180 min” value is −40%.
